Results: US10183032B2, “Methods for treating bacterial infection” (Ball State Innovation Corporation, priority 2012, dated 2019)
Entries after “also recorded” stand apart in the source; their conditions may differ.

Tests used:
[1] = test system: actin stress fibers; assay: Actin stress fibers in HUVEC during S. pyogenes infection; assay type: cell-based, human; conditions: ML 141 10 μM, 18-20 h, MOI 30, 2 h
Method: FIG. 13 is an image depicting ML 141 decreasing actin stress fiber depolymerization during infection. HUVEC were incubated with vehicle control dimethyl sulfoxide (DMSO) or with ML 141 (10 μM) 18-20 h prior to infection with Streptococcus pyogenes at a multiplicity of infection of 30 (2 h). Actin was detected using Alexa Fluor 488 phalloidin. Data are presented as the percentage of HUVEC with no detectable actin stress fibers. 100-200 cells/treatment were evaluated from randomly selected fields. Scale bar is 50 μm (P<0.05 by χ^2 test of association).
For actin assessment, HUVEC were seeded at 6×10^5 cells/ml in 35 mm glass-bottom dishes (MatTek, Ashland, Mass.) that had been coated with Attachment Factor. HUVEC were pretreated with ML 141 or with DMSO and treated with gentamicin as described above. HUVEC were washed three times with PBS and fixed with 4% paraformaldehyde for 30 min, RT. HUVEC were gently washed four times with PBS, permeabilized and blocked with 1% BSA/0.1% Triton (Sigma-Aldrich, T8787). HUVEC were gently washed four times with PBS, probed for actin with Alexa Fluor 488 phalloidin (1:40, Life Technologies, A12379) in PBS (30 min, RT) and washed three more times with PBS. […] A total of 200 HUVEC were assessed for actin stress fiber disassembly from randomly selected fields-of-view. […]

[2] = test system: Staphylococcus aureus; assay: Intracellular S. aureus population in HUVEC 48 hours post infection, CFU; assay type: cell-based; conditions: HUVEC pretreated 18 hours (1.0 μM FIG. 7; 10 μM FIG. 11), infected 1 hour
Method: FIG. 7 is a graph illustrating suppression of intracellular population sustained over time. Human umbilical vein endothelial cells (HUVEC) were pretreated (1.0 μM, 18 hours) with the vehicle control dimethyl sulfoxide (DMSO) or ML 141 and infected with Staphylococcus aureus (1 hour). At 48 hours, intracellular bacteria were recovered, serial dilutions incubated on tryptic soy agar and colonies enumerated. Data are presented as % control, ±SEM (*less than vehicle control; p≤0.05 by t-test; n=3-5/treatment).
FIG. 11 is a graph illustrating suppression of intracellular population sustained over time. […]
Two days prior to the assay, TSB is inoculated with S. aureus (American Type Culture Collection #29213) and incubated overnight (225 rpm, 37° C.). […] To detect the level of infection using flow cytometry, cells that have been infected with fluorescently-labeled bacteria are washed extensively with PBS, lifted from 96-well plate by incubation with trypsin, washed extensively in FACS buffer (2% BSA/0.1% sodium azide/PBS), fixed (FACS buffer containing 0.74% formaldehyde), and are counted using an Accuri flow cytometer (BD, Franklin Lakes, N.J.). They are also lifted from culture dishes using cell scrapers, pelleted, fixed (1% BSA/0.74% formaldehyde/PBS), and are counted using an Accuri flow cytometer. […]

[3] = test system: Human umbilical vein endothelial cells; assay: Cytotoxicity assay (XTT), HUVEC; assay type: cell-based; conditions: HUVEC treated overnight, PEG solvent
Method: FIG. 6A illustrates that neither cytotoxicity nor bactericidal activity is detected. Human umbilical vein endothelial cells (HUVEC) were pretreated (18 hours) with the vehicle control polyethylene glycol (PEG) or with ML 141 and viability assessed using an XTT assay. The formazan dye produced in living cells was detectable at an absorbance wavelength of 490 nanometers and used as an indicator of cell viability. Absorbance values were not different amongst the groups (p>0.05 by one-way ANOVA; n=3/treatment).
HUVEC are plated at a density of 1.2×10^4 cells/ml into 96-well dishes coated with Attachment Factor. The next day, cells are pretreated with the vehicle control DMSO or with ML 141 (18 hours). An XTT-reducing assay is performed and absorbance read at 490 nanometers using a Bio-Rad plate reader.

COc1ccc(C2CC(c3ccccc3)=NN2c2ccc(S(N)(=O)=O)cc2)cc1 (stereo not drawn) [ML 141, 4-[3-(4-methoxyphenyl)-5-phenyl-3,4-dihydropyrazol-2-yl]benzenesulfonamide]
reordering of actin stress fibers during S. pyogenes infection [1]: less reordering of actin stress fibers | viable intracellular bacteria recovered 48 hours post-infection [2]: diminished the number of viable bacteria recovered; also recorded: lower | Cytotoxicity (XTT, absorbance 490 nm) [3]: not detectable
